# Experimental data: patent US20040121965A1, “Method of treating resistant tumors” (Wyeth Holdings Corporation, priority 2002, published 2004)
# Where two headings read alike, the source gives them in different places.
# Key:
# [1] = test system: KB-3-1; test: Cell survival assay (SRB), KB-3-1; type: cell-based, human; settings: Homo sapiens
# Method in brief: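 Growth inhibition (IC50) is derived from SRB-measured protein content after a 3-day, duplicate exposure to serially diluted compound.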
# [2] = test system: KB-8-5 (MDR1+); test: Cell survival assay (SRB), KB-8-5 (MDR1+); settings: for IC50: Homo sapiens, MDR1, read-out: In vitro IC50 (nM) KB85
# [3] = test system: KB-V1 (MDR1++); test: Cell survival assay (SRB), KB-V1 (MDR1++); settings: for IC50: Homo sapiens, read-out: In vitro IC50 (nM) KBV1
# [4] = KB 3-1, KB-3-1 cells (paclitaxel-sensitive parent), read-out: In vitro IC50 (nM) KB-3-1
SMILES,"IC50 [1, 4] [nM]",Ratio KB85/KB [2],IC50 [2] [nM],Ratio KBV1/KB [3],IC50 [3] [nM],"IC50 ([1]; KB 3-1, read-out: In vitro IC50 (nM) KB-3-1) [nM]"
"CCOC(=O)/C(C)=C/[C@H](C(C)C)N(C)C(=O)[C@@H](NC(=O)[C@H](NC)C(C)(C)c1cc(C)cc(C)c1)C(C)(C)C [Example 16b, N,β,β,3,5-pentamethyl-D-phenylalanyl-N^1-[(1S,2E)-4-ethoxy-1-isopropyl-3-methyl-4-oxo-2-butenyl]-N^1,3-dimethyl-L-valinamide]",257,5.9,1510,11.7,≥ 3000,–
"CN[C@H](C(=O)N[C@@H](C(=O)N(C)[C@H](/C=C(\C)C(=O)O)C(C)C)C(C)(C)F)C(C)(C)c1ccccc1 [Example 148, N,β,β-trimethyl-L-phenylalanyl-N^1-[(1S,2E)-3-carboxy-1-isopropylbut-2′enyl]-3-fluoro-N^1-methyl-D-valinamide]",88,2.2,193,34.1,> 3000,–
"CN[C@@H](C(=O)N[C@H](C(=O)N(C)[C@H](/C=C(\C)C(=O)O)C(C)C)C(C)(C)C)C(C)(C)c1cccc(C(F)(F)F)c1 [Example 63, N,β,β-Trimethyl-3-(trifluoromethyl)-D-phenylalanyl-N^1-[(1S,2E)-3-carboxy-1-isopropyl-2-butenyl]-N^1,3-dimethyl-L-valinamide]",19.1,2.4,45.7,69.0,1320,–
"CCOC(=O)/C(C)=C/[C@H](C(C)C)N(C)C(=O)[C@@H](NC(=O)[C@@H](NC)C(C)(C)c1ccccc1OC)C(C)(C)C [Example 54, 2-Methoxy-N,β,β-trimethyl-L-phenylalanyl-N^1-[(1S,2E)-4-ethoxy-1-isopropyl-3-methyl-4-oxo-2-butenyl]-N^1,3-dimethyl-L-valinamide]",126,4.8,602,16.6,2090,–
"CN[C@H](C(=O)N[C@H](C(=O)N(C)[C@H](/C=C(\C)C(=O)O)C(C)C)[C@H](C)OC)C(C)(C)c1ccccc1 [Example 88, N,β,β-trimethyl-L-phenylalanyl-N^1-[(1S,2E)-3-carboxy-1-isopropyl-2-butenyl]-N^1,O-dimethyl-L-allothreoninamide]",871,2.0,1740,3.4,≥ 3000,–
"CN[C@@H](C(=O)N[C@H](C(=O)N(C)[C@H](/C=C(\C)C(=O)O)C(C)C)C(C)(C)C)C(C)(C)c1cccs1 [Example 21, N-Methyl-3-(2-thienyl)-D-valyl-N^1-[(1S,2E)-3-carboxy-1-isopropyl-2-butenyl]-N^1,3-dimethyl-L-valinamide]",10.2,1.8,18.2,74.4,758,–
"CN[C@H](C(=O)N[C@H](C(=O)N(C)[C@H](/C=C(\C)C(=O)NCCC#N)C(C)C)C(C)(C)C)C(C)(C)c1ccccc1 [Example 109, N,β,β-trimethyl-L-phenylalanyl-N^1-{(1S,2E)-4-[(2-cyanoethyl)amino]-1-isopropyl-3-methyl-4-oxo-2-butenyl}-N^1,3-dimethyl-L-valinamide]",129,3.4,435,23.3,≥ 3000,–
"CN[C@H](C(=O)N[C@H](C(=O)N(C)[C@H](/C=C(\C)C(=O)O)C(C)C)C(C)(C)c1ccc(OC)cc1)C(C)(C)c1ccccc1 [Example 87, N,β,β-trimethyl-L-phenylalanyl-N-[(1S,2E)-3-carboxy-1-isopropyl-2-butenyl]-N,O,β,β-tetramethyl-L-tyrosinamide]",27.2,2.1,56.3,72.4,1970,–
"CN[C@@H](C(=O)N[C@H](C(=O)N(C)[C@H](/C=C(\C)C(=O)O)C(C)C)C(C)(C)C)C(C)(C)c1cccc(C)c1 [Example 9, N,β,β,3-Tetramethyl-D-phenylalanyl-N^1-[(1S,2E)-3-carboxy-1-isopropyl-2-butenyl]-N^1,3-dimethyl-L-valinamide]",7.9,2.5,19.9,56.5,447,–
"CNC(C(=O)NC(C(=O)N(C)C(C=C(C)C(=O)O)C(C)C)C(C)(C)C)C(C)c1ccccc1.O=C(O)C(F)(F)F (stereo not drawn) [Example 100, 4-{[3,3-Dimethyl-2-(2-methylamino-3-phenyl-butyrylamino)-butyryl]-methyl-amino}-2,5-dimethyl-hex-2-enoic Acid Trifluoroacetic Acid]",114,1.7,197,26.2,≥ 3000,–
"CN[C@@H](C(=O)N[C@H](C(=O)N(C)[C@H](/C=C(\C)C(=O)O)C(C)C)C(C)(C)C)C1(c2ccccc2)CCCC1 [Example 72, (2E,4S)-2,5-dimethyl-4-(methyl{3-methyl-N-[(2R)-2-(methylamino)-2-(1-phenylcyclopentyl)ethanoyl]-L-valyl}amino)-2-hexenoic Acid]",59.3,1.1,63.1,45.0,2660,–
"CN[C@H](C(=O)N[C@H](C(=O)N(C)[C@H](/C=C(\C)C(=O)O)C(C)C)C(C)(C)O)C(C)(C)c1ccccc1 [Example 156, N,β,β-trimethyl-L-phenylalanyl-N^1-[(1S,2E)-3-carboxy-1-isopropylbut-2-enyl]-3-hydroxy-N^1-methyl-L-valinamide]",58,1.6,95,51.7,> 3000,–
"CCOC(=O)/C(C)=C/[C@H](C(C)C)N(C)C(=O)[C@@H](NC(=O)[C@H](NC)C(C)(C)c1ccccc1)C(C)(C)C [Example 135, Ethyl (E,4S)-4-[((2S)-3,3-dimethyl-2-{[(2R)-3-methyl-2-(methylamino)-3-phenylbutanoyl]amino}butanoyl)(methyl)amino]-2,5-dimethyl-2-hexenoate]",909,2.3,2090,2.9,2640,–
"CN[C@H](C(=O)N[C@H](C(=O)N(C)[C@H](/C=C(\C)C(=O)N[C@@H](CCSC)C(=O)O)C(C)C)C(C)(C)C)C(C)(C)c1ccccc1 [Example 145, N,β,β-trimethyl-L-phenylalanyl-N 1-((1S,2E)4-{[(1S)-1-carboxy-3-(methylthio)propyl]amino}-1-isopropyl-3-methyl-4-oxobut-2-enyl)-N 1,3-dimethyl-L-valinamide]",131,12.2,1600,22.9,> 3000,–
"CCCC[C@@H](/C=C(\C)C(=O)O)N(C)C(=O)[C@@H](NC(=O)[C@@H](NC)C(C)(C)c1ccccc1)C(C)(C)C [Example 75, N,β,β-Trimethyl-L-phenylalanyl-N^1-[(1S,2E)-1-butyl-3-carboxybut-2-enyl]-N^1,3-dimethyl-L-valinamide]",36,2.2,78,60.0,2130,–
"CN[C@H](C(=O)N[C@H](C(=O)N(C)[C@H](/C=C(\C)C(=O)O)C(C)C)C(C)(C)C)C(C)(C)c1cccc(O)c1 [Example 47, 3-Hydroxy-N,β,β-trimethylphenylalanyl-N^1-[(1S,2E)-3-carboxy-1-isopropyl-2-butenyl]-N^1,3-dimethyl-L-valinamide]",7,5.4,37.5,329.7,2310,–
"CN[C@H](C(=O)N[C@H](C(=O)N(C)[C@H](/C=C(\C)C(=O)O)C(C)C)C(C)(C)C)C(C)(C)c1cccc(C(C)=O)c1 [Example 155, 3-acetyl-N,β,β-trimethyl-L-phenylalanyl-N^1-[(1S,2E)-3-carboxy-1-isopropylbut-2-enyl]-N^1,3-dimethyl-L-valinamide]",1.8,3.2,5.8,206,370,–
"CN[C@H](C(=O)N[C@H](C(=O)N(C)[C@H](/C=C(\C)C(=O)O)C(C)C)C(C)(C)C)C(C)(C)c1cc(C)cc(C)c1 [Example 17, N,β,β,3,5-Pentamethyl-L-phenylalanyl-N^1-[(1S,2E)-3-carboxy-1-isopropyl-2-butenyl]-N^1,3-dimethyl-L-valinamide]",1,–,1,75.7,44,–
"CN[C@H](C(=O)N[C@H](C(=O)N(C)[C@H](/C=C(/C)C(=O)O)C(C)C)C(C)(C)C)C(C)(C)c1ccccc1 [Example 117, N,β,β-trimethyl-L-phenylalanyl-N^1-[(1S,2Z)-3-carboxy-1-isopropyl-2-butenyl]-N^1,3-dimethyl-L-valinamide]",–,2.1,58,93.9,2630,28
"CN[C@H](C(=O)N[C@H](C(=O)N[C@H](/C=C(\C)C(=O)O)CC(C)C)C(C)(C)C)C(C)(C)c1ccccc1.O=C(O)C(F)(F)F [Example 93, N,β,β-trimethyl-L-phenylalanyl-N^1-[(1S,2E)-3-carboxy-1-isobutylbut-2-enyl]-3-methyl-L-valinamide Trifluoroacetic Acid]",85.2,4.0,339,35.2,≥ 3000,–
